Assay results from patent US20130315843A1, “COMPOSITION FOR REDUCTION OF TRPA1 AND TRPV1 SENSATIONS” (priority 2012, published 2013).
Where a name gives a salt, the structure may show the parent alone. Read-outs that look alike come from different tables or passages of the source.

Tests used:
human TRPA1 [1] = target: T1, human TRPA1 (Homo sapiens, UniProt O75762); assay: FLIPR Ca2+ assay, reduction of L-Menthol activation of TRPA1; settings: 100 μM antagonist vs 1 mM L-Menthol
Description: In order to determine whether TRPA1 is activated, the intracellular calcium ion (Ca^2+) level from transfected cells with the TRPA1 receptor gene was measured. HEK-2 cells stably transfected with human TRPA1 were grown in 15 ml growth medium [high glucose DMEM (Dulbecco's Modification of Eagle's Medium) supplemented with 10% FBS (fetal bovine serum), 100 μg/ml Penicillin/streptomycin, 100 μg/ml G418] in a 75 Cm^2 flask for 3 days at 37° C. in a mammalian cell culture incubator set at 5% CO2. Cells were detached with addition of 10 ml of PBS (phosphate buffered saline) by hand shaking gently and transferred to a 50 ml tube and centrifuged at 850 rpm for 3 minutes to remove PBS. After centrifugation, a pellet of cells was formed in the bottom of the tube separating them from the supernatant solution. […] Fluo-4 is a fluorescent dye used for quantifying cellular Ca^2+ concentrations in the 100 nM to 1 μM range.
The pelleted cells were re-suspended in 10 ml assay buffer and 90 μl aliquots (˜50,000 cells) per well delivered to a 96-well assay plate containing 10 μl of test compounds (1 mM in assay buffer, final concentration 100 μM) or buffer control and incubated at room temperature for 30 minutes. After 30 minutes, the plate was placed into a fluorometric imaging plate reader (FLIPR384 from Molecular Devices) and basal fluorescence recorded (excitation wave length 488 nm and emission wave length 510 nm). Then 20 μl of the molecule being tested as a TRPA1 antagonist was added and fluorescence recorded. For determining the direct effect of test compounds on TRPA1, fluorescence was measured immediately after addition of each compound.
To determine if a compound was an antagonist or a desensitizer the direct effect of a test compound was determined. For determining the direct effect of test compounds on TRPA1 receptor activation, 100 μl aliquots (˜50,000 cells) of cells prepared as described above were delivered to a 96-well assay plate and basal fluorescence recorded as noted above. Then 20 μl of the compound being tested as a TRPA1 activator was added and fluorescence recorded. If any increase in fluorescence over background was noted, then the compound was considered an agonist.

human TRPV1 = human TRPV1 (Homo sapiens, UniProt Q8NER1); assay: FLIPR Ca2+ assay, reduction of L-Menthol activation of TRPV1; settings: for Average Ca2+ Counts / % Reduction of L-Menthol TRPV1 Activation: antagonist 100 μM against 1 mM L-Menthol; for inhibition at 100 µM: read-out: % Reduction of L-Menthol TRPV1 Activation
human TRPA1 [2] = target: T1, human TRPA1; assay: FLIPR Ca2+ assay, reduction of hydrogen peroxide activation of TRPA1; format: cell-based; set-up: expressed in transfected cells; settings: for inhibition at 100 µM / inhibition at 400 µM: read-out: % Reduction of Hydrogen Peroxide TRPA1 Activation
Description: After centrifugation, a pellet of cells was formed in the bottom of the tube separating them from the supernatant solution.
The pelleted cells were re-suspended in 10 ml assay buffer and 90 μl aliquots (˜50,000 cells) per well delivered to a 96-well assay plate containing 10 μl of test compounds ([…]) or buffer control and incubated at room temperature for 30 minutes.

[3] = compound 100 μM against 200 μM hydrogen peroxide, Sets 1-4
[4] = 400 μM antagonist vs 500 μM hydrogen peroxide
[5] = antagonist 400 μM against 200 μM hydrogen peroxide

T1 sequence (O75762 whole entry): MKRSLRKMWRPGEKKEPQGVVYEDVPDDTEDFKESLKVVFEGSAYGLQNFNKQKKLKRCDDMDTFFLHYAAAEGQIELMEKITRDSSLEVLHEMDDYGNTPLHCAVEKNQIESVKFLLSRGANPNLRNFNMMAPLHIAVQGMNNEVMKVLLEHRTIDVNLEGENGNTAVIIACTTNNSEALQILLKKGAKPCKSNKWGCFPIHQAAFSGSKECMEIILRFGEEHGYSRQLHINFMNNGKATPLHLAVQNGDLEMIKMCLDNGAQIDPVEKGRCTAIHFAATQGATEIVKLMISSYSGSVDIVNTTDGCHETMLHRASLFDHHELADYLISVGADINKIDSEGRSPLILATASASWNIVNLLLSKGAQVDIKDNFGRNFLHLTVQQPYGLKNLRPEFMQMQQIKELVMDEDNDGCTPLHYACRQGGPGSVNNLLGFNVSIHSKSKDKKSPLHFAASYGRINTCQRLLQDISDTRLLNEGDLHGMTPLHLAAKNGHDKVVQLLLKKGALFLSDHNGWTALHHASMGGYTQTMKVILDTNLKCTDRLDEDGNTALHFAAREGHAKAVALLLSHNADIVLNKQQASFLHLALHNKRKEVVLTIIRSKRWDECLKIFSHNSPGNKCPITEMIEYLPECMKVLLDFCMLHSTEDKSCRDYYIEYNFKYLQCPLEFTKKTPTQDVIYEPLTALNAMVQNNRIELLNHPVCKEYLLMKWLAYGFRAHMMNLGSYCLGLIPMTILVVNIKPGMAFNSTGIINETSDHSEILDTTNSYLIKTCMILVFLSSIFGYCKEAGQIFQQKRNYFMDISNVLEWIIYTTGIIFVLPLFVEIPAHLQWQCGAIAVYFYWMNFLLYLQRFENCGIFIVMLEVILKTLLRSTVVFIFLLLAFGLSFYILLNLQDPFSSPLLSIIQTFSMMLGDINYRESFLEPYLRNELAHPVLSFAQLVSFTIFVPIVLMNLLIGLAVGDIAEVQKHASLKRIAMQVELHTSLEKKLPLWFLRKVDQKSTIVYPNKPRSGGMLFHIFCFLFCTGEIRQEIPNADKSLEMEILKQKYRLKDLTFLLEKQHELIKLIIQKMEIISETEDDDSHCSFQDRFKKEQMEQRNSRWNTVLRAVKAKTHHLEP
Sequence of human TRPV1 (Q8NER1 whole entry): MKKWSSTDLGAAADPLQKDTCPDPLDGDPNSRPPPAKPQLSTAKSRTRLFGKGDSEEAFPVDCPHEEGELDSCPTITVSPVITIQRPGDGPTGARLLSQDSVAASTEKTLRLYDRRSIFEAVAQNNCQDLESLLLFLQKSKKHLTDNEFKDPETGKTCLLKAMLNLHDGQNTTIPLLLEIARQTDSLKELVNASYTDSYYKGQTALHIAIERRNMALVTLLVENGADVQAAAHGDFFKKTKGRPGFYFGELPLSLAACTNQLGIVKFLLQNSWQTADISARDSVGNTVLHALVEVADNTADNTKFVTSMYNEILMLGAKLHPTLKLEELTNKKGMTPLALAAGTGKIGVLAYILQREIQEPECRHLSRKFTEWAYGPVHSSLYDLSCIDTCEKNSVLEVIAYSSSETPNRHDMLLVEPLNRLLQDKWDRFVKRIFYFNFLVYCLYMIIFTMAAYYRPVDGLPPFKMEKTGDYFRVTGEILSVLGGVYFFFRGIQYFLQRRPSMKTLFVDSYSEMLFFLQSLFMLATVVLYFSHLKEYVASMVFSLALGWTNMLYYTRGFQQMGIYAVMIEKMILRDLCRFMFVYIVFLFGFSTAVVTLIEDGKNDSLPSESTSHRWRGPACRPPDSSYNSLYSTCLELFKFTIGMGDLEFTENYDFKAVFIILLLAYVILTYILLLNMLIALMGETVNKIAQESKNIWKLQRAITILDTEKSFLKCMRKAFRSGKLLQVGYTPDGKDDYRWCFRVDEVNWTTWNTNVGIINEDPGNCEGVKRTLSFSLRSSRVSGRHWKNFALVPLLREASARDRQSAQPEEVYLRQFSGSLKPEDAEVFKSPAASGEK

## Cc1ccc(C(C)C)cc1 [1-isopropyl-4-methylbenzene]
Human TRPA1 [1]
  Block of L-Menthol activation of TRPA1: BLOCK ONLY MENTHOL/TRPA1
Human TRPV1
  Average Ca2+ Counts: 1112.7 Counts
  inhibition at 100 µM: 40.5%

## O=C(Nc1ccccc1C(=O)O)c1ccccc1 [2-benzoylamino-benzoic acid]
Human TRPA1 [1]
  Block of L-Menthol activation of TRPA1: BLOCK ONLY MENTHOL/TRPA1
Human TRPV1
  Average Ca2+ Counts: 1207.7 Counts
  inhibition at 100 µM: 36.1%

## CC(=O)OCCC(C)S (stereo not shown) [3-mercaptobutyl acetate]
Human TRPA1 [1]
  Block of L-Menthol activation of TRPA1: BLOCK ONLY MENTHOL/TRPA1
Human TRPV1
  Average Ca2+ Counts: 1061.3 Counts
  inhibition at 100 µM: 42.8%

## CC(=O)c1cccn1C [2-acetyl-1-methylpyrrole]
Human TRPV1
  Average Ca2+ Counts: 1254.0 Counts
  inhibition at 100 µM: 33.9%

## CCCCC/C=C/C(=O)OC [methyl trans-2-octenoate]
Human TRPV1
  Average Ca2+ Counts: 1538.7 Counts
  inhibition at 100 µM: 20.7%

## CCCCCCCCCCO [1-decanol]
Human TRPV1
  Average Ca2+ Counts: 1175.7 Counts
  inhibition at 100 µM: 37.5%

## CC(=O)OCC1=CCC2CC1C2(C)C (stereo not shown) [6,6-dimethylbicyclo[3.1.1]hept-2-ene-2-methyl acetate]
Human TRPV1
  % Reduction of L-Menthol TRPV1 Activation: 24.9%
  Average Ca2+ Counts: 1448.3 Counts

## CC(C)=CCCC(C)CCOC=O (stereo not shown) [citronellyl formate]
Human TRPA1 [1]
  Block of L-Menthol activation of TRPA1: BLOCK ONLY MENTHOL/TRPA1
Human TRPV1
  Average Ca2+ Counts: 1097.0 Counts
  inhibition at 100 µM: 41.2%

## C=Cc1scnc1C [4-methyl-5-vinylthiazole]
Human TRPA1 [1]
  Block of L-Menthol activation of TRPA1: BLOCK ONLY MENTHOL/TRPA1
Human TRPV1
  Average Ca2+ Counts: 1227.7 Counts
  inhibition at 100 µM: 35.1%

## COc1cc(/C=C/C(=O)O)ccc1O [ferulic acid]
Human TRPA1 [1]
  Block of L-Menthol activation of TRPA1: BLOCK ONLY MENTHOL/TRPA1
Human TRPV1
  Average Ca2+ Counts: 1242.0 Counts
  inhibition at 100 µM: 34.5%

## CC(=O)C(=O)CC(C)C [5-methyl-2,3-hexanedione]
Human TRPA1 [1]
  Block of L-Menthol activation of TRPA1: BLOCK ONLY MENTHOL/TRPA1
Human TRPV1
  Average Ca2+ Counts: 2968.5 Counts
  inhibition at 100 µM: 26.4%

## CC(=O)CCC=C(C)CCC=C(C)CCC=C(C)C [Farnesylacetone]
Human TRPA1 [1]
  Block of L-Menthol activation of TRPA1: BLOCK ONLY MENTHOL/TRPA1

## CC(C)=CCCC(C)CCO (racemic) [(+−)-beta;-citronellol]
Human TRPV1
  % Reduction of L-Menthol TRPV1 Activation: 22.5%
  Average Ca2+ Counts: 1501.3 Counts

## O=C1O[C@H]([C@@H](O)CO)C([O-])=C1O.[Na+] [(+)-sodium 1-ascorbate]
Human TRPV1
  % Reduction of L-Menthol TRPV1 Activation: 26.6%
  Average Ca2+ Counts: 2961.0 Counts

## C=CC1(C)CCC(C(=C)C)O1 (stereo not shown) [2-Isopropenyl-5-Methyl-5-Vinyltetrahydrofuran]
Human TRPA1 [1]
  Block of L-Menthol activation of TRPA1: BLOCK ONLY MENTHOL/TRPA1

## d-(−)-lactic acid
Human TRPV1
  % Reduction of L-Menthol TRPV1 Activation: 41.3%
  Average Ca2+ Counts: 1093.7 Counts

## CCC(C)C1CCCCC1=O (stereo not shown) [2-sec.-butylcyclohexanone]
Human TRPV1
  Average Ca2+ Counts: 1352.3 Counts
  inhibition at 100 µM: 29.4%

## CCCCCCCC/C=C\CCCCCCCC(=O)O [Oleic acid]
Human TRPA1 [1]
  Block of L-Menthol activation of TRPA1: BLOCK ONLY MENTHOL/TRPA1

## COc1ccc(C)cc1C [2,4-dimethylanisole]
Human TRPV1
  Average Ca2+ Counts: 1255.3 Counts
  inhibition at 100 µM: 33.9%

## CCCCC/C=C/C=C/C=O [trans,trans-2,4-Decadienal]
Human TRPA1 [1]
  Block of L-Menthol activation of TRPA1: BLOCK ONLY MENTHOL/TRPA1

## CC(O)C(C)S (stereo not shown) [3-mercapto-2-butanol]
Human TRPV1
  Average Ca2+ Counts: 1008.3 Counts
  inhibition at 100 µM: 45.3%

## COc1ccc(C(C)=O)cc1 [4′-methoxyacetophenone]
Human TRPV1
  Average Ca2+ Counts: 1162.0 Counts
  inhibition at 100 µM: 38.2%

## SCCc1cnccn1 [2-pyrazinylethanethiol]
Human TRPA1 [2]; [3]
  Average Ca++ Counts: 1987.5 Counts
  inhibition at 100 µM: 81.2%
Human TRPV1
  Average Ca2+ Counts: 992.0 Counts
  inhibition at 100 µM: 46%

## C[C@@H](CO)c1ccccc1 [(r)-(+)-2-phenyl-1-propanol]
Human TRPV1
  Average Ca2+ Counts: 1414.0 Counts
  inhibition at 100 µM: 26.5%

## CCCCCCCCCCCC(=O)OC [methyl laurate]
Human TRPV1
  Average Ca2+ Counts: 1199.7 Counts
  inhibition at 100 µM: 36.4%

## C/C=C/C(=O)OCC/C=C\CC [crotonic acid cis-3-hexen-1-yl ester]
Human TRPV1
  Average Ca2+ Counts: 1150.0 Counts
  inhibition at 100 µM: 38.7%

## CCC(O)c1ccccc1 (stereo not shown) [phenylpropanol (1-phenyl 1-propanol), 1-phenyl 1-propanol]
Human TRPV1
  Average Ca2+ Counts: 1218.3 Counts
  inhibition at 100 µM: 35.6%

## CCc1occc(=O)c1O [2-ethyl-3-hydroxy-4h-pyran-4-one]
Human TRPV1
  Average Ca2+ Counts: 1095.3 Counts
  inhibition at 100 µM: 41.3%

## CC(O)c1ccccc1 (racemic) [(+−)-1-phenylethanol]
Human TRPV1
  Average Ca2+ Counts: 1087.7 Counts
  inhibition at 100 µM: 41.6%

## OCc1ccco1 [furfuryl alcohol]
Human TRPA1 [1]
  Block of L-Menthol activation of TRPA1: BLOCK BOTH MENTHOL AND H2O2 ON TRPA1
Human TRPA1 [2]
  Average Ca++ Counts: 5585.5 Counts
  Block of hydrogen peroxide activation of TRPA1: BLOCK BOTH MENTHOL AND H2O2 ON TRPA1
  inhibition at 100 µM: 47.3%

## Cc1ccc(C(C)C)c(O)c1 [thymol]
Human TRPV1
  Average Ca2+ Counts: 1331.3 Counts
  inhibition at 100 µM: 30.3%

## CCOc1ccc(C=O)cc1 [4-ethoxybenzaldehyde]
Human TRPV1
  Average Ca2+ Counts: 1200.0 Counts
  inhibition at 100 µM: 36.4%

## COc1cccc(OC)c1O [2,6-dimethoxyphenol]
Human TRPV1
  Average Ca2+ Counts: 1365.0 Counts
  inhibition at 100 µM: 28.8%

## COC(C=C(C)CCC=C(C)C)OC (mixture of isomers)
Human TRPA1 [1]
  Block of L-Menthol activation of TRPA1: BLOCK ONLY MENTHOL/TRPA1

## C/C=C(/C)C1CCC(C)(C)O1 (stereo not shown) [ocimene quintoxide]
Human TRPV1
  % Reduction of L-Menthol TRPV1 Activation: 34.7%
  Average Ca2+ Counts: 1236.3 Counts

## CCC1CCC(=O)O1 (stereo not shown) [gamma-caprolactone]
Human TRPV1
  Average Ca2+ Counts: 1084.3 Counts
  inhibition at 100 µM: 41.8%

## C/C=C(/C)C(=O)OCC(C)C [Angelic Acid Isobutyl Ester]
Human TRPA1 [1]
  Block of L-Menthol activation of TRPA1: BLOCK ONLY MENTHOL/TRPA1

## O=C1O[C@H]([C@@H](O)CO)C([O-])=C1O.[Na+] [(+)-Sodium L-ascorbate]
Human TRPA1 [1]
  Block of L-Menthol activation of TRPA1: BLOCK ONLY MENTHOL/TRPA1

## CCCCOC(=O)C(C)CC (stereo not shown) [butyl 2-methylbutyrate]
Human TRPV1
  Average Ca2+ Counts: 1233.7 Counts
  inhibition at 100 µM: 34.9%

## CCCCCCCCCCCCC(=O)O [Tridecanoic acid]
Human TRPA1 [1]
  Block of L-Menthol activation of TRPA1: BLOCK ONLY MENTHOL/TRPA1

## CC(C)=CCCC(C)CCO (racemic) [(+−)-beta; -Citronellol]
Human TRPA1 [1]
  Block of L-Menthol activation of TRPA1: BLOCK ONLY MENTHOL/TRPA1

## CCC(C)C1CCCCC1=O (stereo not shown) [2-sec-butylcyclohexanone]
Human TRPA1 [1]
  Block of L-Menthol activation of TRPA1: BLOCK ONLY MENTHOL/TRPA1

## O=C/C=C/c1ccccc1 [trans-Cinnamaldehyde]
Human TRPA1 [1]
  Block of L-Menthol activation of TRPA1: BLOCK ONLY MENTHOL/TRPA1

## CCOC(=O)C1OC1(C)c1ccccc1 (stereo not shown) [empg]
Human TRPV1
  % Reduction of L-Menthol TRPV1 Activation: 38.1%
  Average Ca2+ Counts: 1164.0 Counts

## CCC(O)c1ccccc1 (stereo not shown) [1-phenyl 1-propanol]
Human TRPA1 [1]
  Block of L-Menthol activation of TRPA1: BLOCK ONLY MENTHOL/TRPA1

## C[C@H]1CC[C@]2(O1)C(C)(C)CCC[C@]2(C)O
Human TRPA1 [2]; [4]
  Block of hydrogen peroxide activation of TRPA1: BLOCK ONLY H2O2/TRPA1

## CCC/C=C/C=O [trans-2-Hexenal]
Human TRPA1 [2]
  Block of hydrogen peroxide activation of TRPA1: BLOCK ONLY H2O2/TRPA1
  inhibition at 400 µM: 52%

## c1ccc(CCCC2CCCO2)cc1 (stereo not shown) [2-(3-Phenylpropyl) tetrahydrofuran]
Human TRPA1 [2]; [4]
  Block of hydrogen peroxide activation of TRPA1: BLOCK ONLY H2O2/TRPA1
Human TRPA1 [2]; [5]
  inhibition at 400 µM: 74%

## CC(O)C(=O)NCCO (stereo not shown) [N-(2-Hydroxyethyl) lactamide]
Human TRPA1 [2]; [4]
  Block of hydrogen peroxide activation of TRPA1: BLOCK ONLY H2O2/TRPA1
Human TRPA1 [2]; [5]
  inhibition at 400 µM: 65%

## CC(=O)OCC1=CCC2C[C@@H]1C2(C)C
Human TRPA1 [1]
  Block of L-Menthol activation of TRPA1: BLOCK ONLY MENTHOL/TRPA1

## CCCc1ccc(O)c(OC)c1 [2-Methoxy-4-propyl-phenol]
Human TRPA1 [2]
  Block of hydrogen peroxide activation of TRPA1: BLOCK ONLY H2O2/TRPA1
  inhibition at 400 µM: 43%

## O=Cc1ccc(O)cc1 [4-hydroxybenzaldehyde]
Human TRPA1 [2]; [3]
  Average Ca++ Counts: 3424.5 Counts
  inhibition at 100 µM: 51.4%

## CCC/C=C/C(OCC)OCC [trans-2-hexen-1-al diethyl acetal]
Human TRPV1
  Average Ca2+ Counts: 1169.0 Counts
  inhibition at 100 µM: 37.9%
